Source: US12728116B2, “Methods of treating multiple sclerosis” (Vanda Pharmaceuticals Inc., priority 2021, dated 2026)
Several values for one entry are separate records, joined by “and”; a condition that tells them apart may be missing. Identical values can stand only once.

Assays:
Assay type in all cases: in vivo, human
[1] = system: adult subjects with relapsing MS; test: Confirmed relapses up to EOS - annualized relapse rate (ARR), phase III study; details: for Total number of relapses (confirmed, up to EOS): total time 1119 / 1137 years; for Mean estimate (ARR), confirmed relapses up to EOS, negative binomial regression: ponesimod 20 mg, teriflunomide 14 mg
Experimental: Primary efficacy variable/primary timepoint: The primary endpoint was annualized relapse rate (ARR) up to the end of study (EOS) defined as the number of confirmed relapses per subject-year. All available data up to EOS, regardless of treatment discontinuation was included (ITT approach).
A generalized linear model with negative binomial distribution was fitted for the primary efficacy endpoint ARR. Two-sided hypotheses were expressed in terms of the model parameters μP20 mg and μT14 mg.
The primary statistical analysis of the ARR endpoint was performed on the FAS using a negative binomial model for confirmed relapses, with the stratification variables prior use of disease-modifying therapies (DMTs) and EDSS category as well as the number of relapses in the year prior to study entry, included in the model and time in the study as an offset variable. Sensitivity analyses was performed on the PPS and also based on different subgroups derived from baseline variables.
A relapse is defined as new, worsening or recurrent neurological symptoms that occur at least 30 days after the onset of a preceding relapse, and that last at least 24 hours, in the absence of fever or infection.
A relapse was confirmed by the treating neurologist only when the subjects' symptoms were accompanied by an increase in EDSS/FS (functional system) scores, which were consistent with the subject's symptoms, from a previous clinically stable EDSS/FS assessment (i.e., performed at least 30 days after the onset of any previous relapse), obtained by the efficacy assessor and consistent with the following: • An increase of at least half a step (0.5 points; unless EDSS=0, then an increase of at least 1.0 points is required) or • An increase of at least 1.0 point in at least two FS scores, or • An increase of at least 2.0 points in at least one FS score (excluding bladder/bowel and cerebral).
The primary statistical analysis was performed up to EOS on the FAS using a negative binomial regression model for confirmed relapses, with treatment as a factor and the binary stratification variables (EDSS≤3.5 versus EDSS>3.5; DMTs within last 2 years prior to randomization [Yes/No]) and the number of relapses in the year prior to study entry (categories≤1 (or missing) and […]) included in the model. The model also included an offset variable defined as the log of time on study (in years) from randomization up to EOS.
This subgroup analysis examined patients with EDSS≤3 (up to moderate disability in one function, or mild disability in three or four functions; no impairment to walking), and/or who were treatment naïve.
(§1) ARR differences and mean number of CUALs were examined using a negative binomial regression model with adjusting for the log time in the study (in years) as an offset.

[2] = system: adult subjects with relapsing MS; test: Combined unique active lesions (CUAL) on brain MRI from baseline to Week 108; details: for CUAL mean estimate (Lesions per year), negative binomial regression: ponesimod 20 mg, teriflunomide 14 mg; for Total number of lesions (CUAL): total time 1072 / 1067 years; for Raw mean lesions/year (CUAL): baseline to week 108
Experimental: (§2) Secondary efficacy variables and testing strategy: Four secondary efficacy endpoints were analyzed as per the statistical testing strategy outlined in FIG. 1. • Change from baseline to Week 108 in fatigue-related symptoms as measured by the symptoms domain of the FSIQ-RMS patient-reported outcome [Fatigue] • Cumulative number of combined unique active lesions from baseline to Week 108 on brain MRI [CUALs] • Time to first 12-week confirmed disability accumulation (CDA) from baseline to EOS on Expanded Disability Status Scale (EDSS) [12-week CDA] • Time to first 24-week CDA from baseline to EOS on EDSS [24-week CDA]
CUAL are new Gd+T1 lesions plus new or enlarging T2 lesions (without double-counting of lesions).
MRI scans were performed at Visits 2 (Baseline). 10 (Week 60), and 14 (EOT) and at any unscheduled visit (U1, U2, etc.). If applicable, MRI scans also were performed at the corresponding visits in the PTOP (Visits 10A and 14A). Testing at all visits were performed up to 7 days prior to or after the visit date.
T1-weighted imaging before and after i.v. administration of 0.1 mmol/kg body weight (=0.2 mL/kg) of Gd as well as PD-T2-weighted imaging was performed. Gd may cause nausea and vomiting and in very rare cases allergic reactions that could require immediate anti-anaphylactic therapy (such as steroids, epinephrine/adrenaline, etc.).
as §1

[3] = system: adult subjects with relapsing MS; test: Time to first 12-week / 24-week confirmed disability accumulation (CDA) on EDSS; details: for Subjects with a 12-week CDA up to EOS / Subjects with a 24-week CDA up to EOS: ponesimod 20 mg, teriflunomide 14 mg
Experimental: as §2
(§3) A 12-week CDA is an increase of at least 1.5 in EDSS for subjects with a baseline EDSS score of 0.0 or an increase of at least 1.0 in EDSS for subjects with a baseline EDSS score of 1.0 to 5.0, or an increase of at least 0.5 in EDSS for subjects with a baseline EDSS score≥5.5 which is to be confirmed after 12 weeks.
All EDSS measurements (with or without relapse, at a scheduled or unscheduled visit) were used to determine the onset of disability accumulation. However, EDSS scores used for confirmation of disability accumulation were obtained at a scheduled visit (i.e., unscheduled visits cannot be used as confirmatory visits) outside any ongoing relapse. In this context, relapse duration is defined as period between start and end dates if available and limited to 90 days from onset if end date is not available or duration is longer than 90 days.
In order to confirm that the EDSS increase is persistent, all EDSS measurements between the onset and the 12-week EDSS confirmation (minus 7-day visit time-window) need to show an increase in EDSS, meeting the criteria for accumulation of disability as defined above.
as §3, with “24-week” for “12-week”, “24” for “12”
In order to confirm that the EDSS increase is persistent, all EDSS measurements between the onset and the 24-week EDSS confirmation (minus 7-day visit time-window) need to show an increase in EDSS, meeting the criteria for accumulation of disability as defined above.

[4] = system: Patients (18-55 years) with RMS; test: Prespecified MRI-based endpoints and NEDA-3 status
Experimental: Patients (18-55 years) with RMS (expanded disability status scale scores: 0-5.5) were randomized (1:1) to receive ponesimod (PON) 20 mg or teriflunomide (TER) 14 mg for 108 weeks. MRI assessments were: volume of T2 lesions; mean number of new gadolinium-enhancing (Gd+) T1 lesions and new/enlarging T2 lesions; and absence of active MRI lesions at week 108. NEDA-3 status (absence of confirmed relapse, Gd+T1 lesions and new/enlarging T2 lesions on annual MRIs, and 12-week confirmed disability accumulation) was evaluated from baseline to week 108.

[5] = ponesimod 20 mg vs teriflunomide 14 mg
[6] = baseline to Week 108, Full Analysis Set
[7] = ponesimod 20 mg vs teriflunomide 14 mg, not statistically significant

SMILES: CCC/N=C1\S/C(=C\c2ccc(OC[C@H](O)CO)c(Cl)c2)C(=O)N1c1ccccc1C [Ponesimod, (R)-5-[3-chloro-4-(2,3-dihydroxy-propoxy)-benz[Z]ylidene]-2-([Z]-propylimino)-3-o-tolyl-thiazolidin-4-one]
- ARR rate ratio (RR), ponesimod vs teriflunomide ([1]; EDSS≤3 subgroup): 0.530
- Reduction of ARR vs teriflunomide ([1]; EDSS≤3 subgroup): 47%
- Raw ARR ([1]; Full Analysis Set): 0.216
- Total number of relapses (confirmed, up to EOS) ([1]; Full Analysis Set): 242
- Reduction of ARR (confirmed relapses) up to EOS compared to teriflunomide [1, 5]: 30.5%
- Treatment effect (rate ratio) on ARR, ponesimod vs teriflunomide ([1]; ponesimod 20 mg vs teriflunomide 14 mg, Full Analysis Set): 0.695
- Mean estimate (ARR), confirmed relapses up to EOS, negative binomial regression ([1]; Full Analysis Set): 0.202
- CUAL treatment effect (Rate Ratio), ponesimod vs. teriflunomide [2, 6]: 0.44 and 0.444
- CUAL mean estimate (Lesions per year), negative binomial regression [2, 6]: 1.405 Lesions per year
- Total number of lesions (CUAL) ([2]; baseline to Week 108): 1671
- Raw mean lesions/year (CUAL) [2]: 1.559 lesions/year
- CUALs, benefit compared with teriflunomide in subgroups ([2]; patients with EDSS≤3 and treatment-naïve patients): benefited from ponesimod compared with teriflunomide
- Reduction of number of CUALs between baseline and week 108 compared to teriflunomide [2, 5]: 56%
- Time to first 24-week CDA, hazard ratio ponesimod vs teriflunomide ([3]; Full Analysis Set, exploratory): 0.84
- Time to first 12-week CDA, hazard ratio ponesimod vs teriflunomide ([3]; Full Analysis Set, stratified Cox regression): 0.83
- Reduction of risk of 12-week CDA compared to teriflunomide [3, 7]: 17%
- Reduction of risk of 24-week CDA compared to teriflunomide [3, 7]: 16%
- Subjects with a 12-week CDA up to EOS [3]: 10.1%
- Subjects with a 24-week CDA up to EOS ([3]; exploratory): 8.1%
- Odds ratio for achieving NEDA-3, PON vs TER ([4]; At week 108): 1.70
- Patients who achieved NEDA-3 ([4]; At week 108): 28.2%
- Mean number of new Gd+T1 lesions per scan ([4]; baseline to week 108): 0.18
- Mean numbers of new/enlarging T2 lesions per year ([4]; baseline to week 108): 1.40
- Rate ratio, new Gd+T1 lesions per scan, PON vs TER ([4]; baseline to week 108): 0.42
- Rate ratio, new/enlarging T2 lesions per year, PON vs TER ([4]; baseline to week 108): 0.44
- Least square (LS) mean difference (PON-TER) in change from baseline in total volume of T2 lesions ([4]; baseline to week 108, PON 20 mg vs TER 14 mg): −399.2 mm^3
- PON vs TER odds ratio for absence of new Gd+T1 lesions ([4]; week 108): 2.18
- PON vs TER odds ratio for absence of new/enlarging 12 lesions ([4]; week 108): 1.71

SMILES: C/C(O)=C(\C#N)C(=O)Nc1ccc(C(F)(F)F)cc1 [Teriflunomide, reference compound]
- Raw ARR ([1]; Full Analysis Set): 0.303
- Total number of relapses (confirmed, up to EOS) ([1]; Full Analysis Set): 344
- Mean estimate (ARR), confirmed relapses up to EOS, negative binomial regression ([1]; Full Analysis Set): 0.290
- CUAL mean estimate (Lesions per year), negative binomial regression [2, 6]: 3.164 Lesions per year
- Total number of lesions (CUAL) ([2]; baseline to Week 108): 3714
- Raw mean lesions/year (CUAL) [2]: 3.481 lesions/year
- Subjects with a 12-week CDA up to EOS [3]: 12.4%
- Subjects with a 24-week CDA up to EOS ([3]; exploratory): 9.9%
- Patients who achieved NEDA-3 ([4]; At week 108): 18.3%
- Mean number of new Gd+T1 lesions per scan ([4]; baseline to week 108): 0.43
- Mean numbers of new/enlarging T2 lesions per year ([4]; baseline to week 108): 3.16
